The source of these data is patent US11517556B2, “Composition for BKCa channel activation” (GWANGJU INSTITUTE OF SCIENCE AND TECHNOLOGY, priority 2016, dated 2022).

In assay [1] the target is T1, rat BKCa channel α-subunit (rSlo1) (Rattus norvegicus, UniProt Q62976).
T1 construct: expressed in transfected cells; host or cells: Xenopus laevis oocytes injected with cRNA (vector pNBC1.0)
In words: Single-channel patch-clamp recording, outside-out patches of Xenopus oocytes. In kind it is cell-based. The following applies: 5 μM. The text has this:
Xenopus laevis oocytes heterologously expressing a BKCa channel α-subunit (Slo1) were used for electrophysiological recording. Subcloning and functional expression of the rat BKCa channel α-subunit using the oocyte expression vector pNBC1.0 has been reported (Ha et al., 2000). Sequence information of Slo1 used in the present disclosure is published in GenBank as expression number AF135265. Plasmid DNA was linearized using Notl restriction enzyme, and complementary RNA (cRNA) was synthesized using T7 RNA polymerase in the presence of nucleoside triphosphate and cap analog m7G(5′)ppp(5′)G from a linear form of DNA using mMessage Machine (Ambion).
Oocytes from stages V to VI were surgically removed from ovarian lobes of anesthetized X. laevis (Xenopus I, Dexter, Mich.). The removed oocytes were transferred to a Ca^2+-free oocyte ringer's (OR) culture medium (86 mM NaCl, 1.5 mM KCl, 2 mM MgCl2 and 10 mM HEPES, pH 7.6). The oocytes were cultured in Ca^2+-free OR medium containing 3 mg/ml collagenase (Worthington Biochemicals) for 1 hour and 30 minutes to 2 hours. This removed the follicular cell layer of the oocyte. Then, the oocytes were widely washed with Ca^2+-free OR culture medium and ND-96 medium (96 mM NaCl, 2 mM KCl, 1.8 mM CaCl2, 1 mM MgCl2, 5 mM HEPES, and 50 µg/ml gentamycin, pH 7.6). The washed oocytes were stored at 18° C. in ND-96 medium. Before oocyte was used, the oocyte was stabilized for at least one day. After the stabilization, approximately 50 ng of synthesized cRNA in 50 nl of nuclease-free water was injected into each oocyte for macroscopic current recording, and approximately 1 ng of synthesized cRNA in 50 nl of nuclease-free water was injected into each oocyte for single-channel recording using a micro-dispenser (Drummond Scientific, Broomall, Pa.). The cRNA-injected oocytes were cultured in ND-96 medium for 1 to 3 days at 18 degree C. Immediately prior to the patch-clamp experiment, the oocyte's vitelline membrane was manually removed with fine forceps. […]
A single BKCa channel was readily activated by a membrane potential simply transferred at 100 mV at a high concentration of intracellular Ca^2+. For the single-channel assay, the switching between the closed and open conditions was determined by setting a potency at a half of a unitary current amplitude. […] The macroscopic current of the expressed BKCa channel was activated by a voltage-clamp pulse delivered from a holding potential of −100 mV at 10 mV increment to a membrane potential of typically −80 to 200 mV, A dwell-time of recorded open and close events for the single BKCa channel was analyzed using a linear histogram method. […]

The subject of another assay is rat bladder strips. The assay is described as follows: Isometric tension recording of bladder smooth muscle strips (ACh-induced contraction). Particulars: 100 μM, 30 min pre-incubation, 1 μM ACh, compared to vehicle, n=6. The method, then: […] tension recording of UBSM experiment was performed by a known method (Dela Pena et al. 2009; Kullmann et al. 2014). In short, a male Sprague-Dawley rat (300-350 g) was euthanized by CO2 choking. Then, the bladder of the rat was excised. The bladder was longitudinally divided into four strips (approximately 2×8 mm). Each separated strip was clipped between a static mount and a force-displacement transducer. Then, the clipped strips were suspended in a temperature-controlled (37° C.) organ bath containing 10 ml of Krebs solution ((mM): 118.4 NaCl, 4.7 KCl, 1.2 KH2PO4, 1.2 MgSO4, 25.0 NaHCO3, 2.5 CaCl2, and 12.2 glucose; pH 7.35-7.40). Then, a mixture of 95% 02 and 5% CO2 was used to continuously generate bubbles in the organ bath. Each UBSM strip was stretched to 1.0 gram of an optimal isometric tension, and was equilibrated for 60 minutes. […] After reaching the equilibration, the strips were stabilized via repeated application of acetylcholine (1 μM) until a continuous reaction was recorded. […] Relaxation was expressed as a percentage reduction in the tension due to acetylcholine-induced contraction. […] Changes in the isometric tension were recorded using a Power Lab Data Acquisition System (ADInstruments) associated with a computer with Lab Chart Software (Version 7, AD Instruments) installed therein. […]

T1 sequence (Q62976 whole entry): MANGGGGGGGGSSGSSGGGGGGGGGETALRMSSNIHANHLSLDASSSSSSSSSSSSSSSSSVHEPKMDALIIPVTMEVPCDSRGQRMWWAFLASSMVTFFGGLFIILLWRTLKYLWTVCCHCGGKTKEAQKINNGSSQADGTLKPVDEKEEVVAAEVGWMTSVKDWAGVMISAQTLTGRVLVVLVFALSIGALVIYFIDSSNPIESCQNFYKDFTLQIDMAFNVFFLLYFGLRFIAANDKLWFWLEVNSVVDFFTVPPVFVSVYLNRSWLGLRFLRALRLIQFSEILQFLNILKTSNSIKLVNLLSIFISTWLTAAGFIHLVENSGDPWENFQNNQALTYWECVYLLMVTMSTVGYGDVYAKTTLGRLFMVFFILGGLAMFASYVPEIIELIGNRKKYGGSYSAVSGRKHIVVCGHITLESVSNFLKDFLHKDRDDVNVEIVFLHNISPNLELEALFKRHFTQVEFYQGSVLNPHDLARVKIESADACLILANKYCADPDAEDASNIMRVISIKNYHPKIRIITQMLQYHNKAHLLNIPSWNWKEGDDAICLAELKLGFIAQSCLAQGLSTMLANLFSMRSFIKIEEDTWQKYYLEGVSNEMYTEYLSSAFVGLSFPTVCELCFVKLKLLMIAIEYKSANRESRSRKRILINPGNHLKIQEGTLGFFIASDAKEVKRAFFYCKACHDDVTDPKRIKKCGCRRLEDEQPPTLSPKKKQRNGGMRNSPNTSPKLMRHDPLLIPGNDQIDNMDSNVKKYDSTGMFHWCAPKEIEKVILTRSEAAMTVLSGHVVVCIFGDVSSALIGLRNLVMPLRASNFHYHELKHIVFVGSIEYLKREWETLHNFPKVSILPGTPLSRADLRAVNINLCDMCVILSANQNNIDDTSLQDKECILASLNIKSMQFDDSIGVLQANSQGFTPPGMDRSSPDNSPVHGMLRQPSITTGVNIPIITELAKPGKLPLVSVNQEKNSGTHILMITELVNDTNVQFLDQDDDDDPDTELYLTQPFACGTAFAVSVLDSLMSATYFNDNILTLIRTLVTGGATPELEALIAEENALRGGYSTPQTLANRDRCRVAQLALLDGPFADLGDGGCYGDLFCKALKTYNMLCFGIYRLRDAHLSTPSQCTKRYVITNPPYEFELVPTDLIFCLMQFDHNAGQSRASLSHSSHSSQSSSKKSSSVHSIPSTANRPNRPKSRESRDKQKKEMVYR

For `C=C(C)[C@H](CC=C(C)C)Cc1c(O)cc(OC)c2c1O[C@H](c1ccc(O)cc1O)CC2=O` [kurarinone], in assay [1] (10 μM intracellular Ca2+, control 68.7±3.7 mV), the “half-activation voltage (V1/2) of single-channel open-probability” value came to 43.7±2.1 mV. For the same compound, the single-channel conductance in assay [1] (10 μM intracellular Ca2+, control 221.1±16.4) came out at 238.3±8.7 pS. Also, in assay [1] (50 mV, 2.98+/−0.34 ms in absence), the “average opening-time of single channel” value came to 5.77 ± 0.90 ms. For the same compound, in assay [1] (50 mV, 3.69±0.80 ms in absence), the “average closing time of single channel” value was found to be 3.60 ± 4.1 ms. Moreover, in the assay with rat bladder strips, the “relaxation effect on ACh-induced contraction” value was 58.2±6.2%.
